Calls of active or inactive are those of the source. The calls are words filed in the database; no cut-off is given here.
Tests used:
[1] = Toxicity in Kunming mouse assessed as effect on lung at 4 to 8 mg/kg, sc measured after 24 hrs by H and E staining based analysis; type: organism-based; details: in vivo, dose 4-8 mg/kg
[2] = system: Cell membrane; assay: Induction of cell membrane permeability in methicillin-resistant Staphylococcus aureus clinical isolate MRSA-16 assessed as dead cells (Q1 region) at 16 ug/ml incubated for 2 hrs by SYTO 9 and PI staining based flow cytometry analysis (reference value: 0.00%); type: cell membranes; details: dose 16.0 µg/ml
[3] = Toxicity in Kunming mouse assessed as effect on kidney at 10 mg/kg, sc measured after 24 hrs by H and E staining based analysis; type: organism-based; details: in vivo
[4] = system: Staphylococcus aureus; assay: Antibacterial activity against methicillin-resistant Staphylococcus aureus infected in Kunming mouse skin infection model assessed as smooth dorsal skin at 8 mg/kg,sc measured after 24 hrs; type: functional, organism-based
[5] = system: Staphylococcus aureus; assay: Antibacterial activity against methicillin-resistant Staphylococcus aureus infected in Kunming mouse skin infection model assessed as effect on skin abscesses at 4 mg/kg,sc measured after 24 hrs; type: functional, organism-based
[6] = system: Staphylococcus aureus; assay: Antibacterial activity against methicillin-resistant Staphylococcus aureus infected in Kunming mouse skin infection model assessed as appearance of small number of infiltrated inflammatory cells in subcutaneous tissue at 8 mg/kg,sc measured after 24 hrs; type: functional, organism-based
[7] = system: Staphylococcus aureus; assay: Antibacterial activity against methicillin-resistant Staphylococcus aureus in presence of cardiolipin; type: functional, organism-based
[8] = Hemolytic activity in sheep erythrocytes incubated for 1 hr by absorbance based analysis; type: toxicity, cell-based, Ovis aries, Erythrocyte
[9] = system: Cell membrane; assay: Induction of cell membrane permeability in methicillin-resistant Staphylococcus aureus clinical isolate MRSA-16 assessed as increase in damaged cells (Q2 region) at 8 ug/ml incubated for 2 hrs by SYTO 9 and PI staining based flow cytometry analysis (reference value: 0.91%); type: cell membranes; details: dose 8.0 µg/ml
[10] = system: Staphylococcus aureus; assay: Antibacterial activity against methicillin-resistant Staphylococcus aureus clinical isolate MRSA-20 measured after 16 to 18 hrs by CLSI method; type: functional; details: time 16-18 hrs
[11] = system: Staphylococcus aureus; assay: Bactericidal activity against Staphylococcus aureus ATCC 29213 assessed as bacterial killing at 8 times MIC measured within 0.5 to 1 hrs by time kill assay relative to control; type: functional; details: time 0.5-1 hrs
[12] = system: Cell membrane; assay: Induction of cell membrane permeability in methicillin-resistant Staphylococcus aureus clinical isolate MRSA-16 assessed as decrease in intact cells (Q3 region) at 8 ug/ml incubated for 2 hrs by SYTO 9 and PI staining based flow cytometry analysis (reference value: 99.07%); type: cell membranes; design: scale not given: the % may be the effect or the level left; details: dose 8.0 µg/ml
[13] = Toxicity in Kunming mouse assessed as effect on liver at 4 to 8 mg/kg, sc measured after 24 hrs by H and E staining based analysis; type: organism-based; details: in vivo, dose 4-8 mg/kg
[14] = system: Staphylococcus aureus; assay: Antibacterial activity against methicillin-resistant Staphylococcus aureus infected in Kunming mouse skin infection model assessed as reduction in number of bacterial cells at 4 to 8 mg/kg,sc measured after 24 hrs; type: functional, organism-based; details: dose 4-8 mg/kg
[15] = Toxicity in Kunming mouse assessed as effect on spleen at 10 mg/kg, sc measured after 24 hrs by H and E staining based analysis; type: organism-based; details: in vivo
[16] = system: Staphylococcus aureus; assay: Antibacterial activity against methicillin-resistant Staphylococcus aureus clinical isolate MRSA-11 measured after 16 to 18 hrs by CLSI method; type: functional; details: time 16-18 hrs
[17] = system: Cell membrane; assay: Induction of cell membrane permeability in methicillin-resistant Staphylococcus aureus clinical isolate MRSA-16 assessed as decrease in intact cells (Q3 region) at 4 ug/ml incubated for 2 hrs by SYTO 9 and PI staining based flow cytometry analysis (reference value: 99.07%); type: cell membranes; design: scale not given: the % may be the effect or the level left; details: dose 4.0 µg/ml
[18] = system: Cell membrane; assay: Induction of cell membrane permeability in methicillin-resistant Staphylococcus aureus clinical isolate MRSA-16 assessed as increase in damaged cells (Q2 region) at 16 ug/ml incubated for 2 hrs by SYTO 9 and PI staining based flow cytometry analysis (reference value: 0.91%); type: cell membranes; details: dose 16.0 µg/ml
[19] = system: Staphylococcus aureus; assay: Antibacterial activity against Staphylococcus aureus ATCC 29213 at sub-inhibitory concentration measured after 20 passages for 16 to 18 hrs; type: functional, organism-based; details: time 16-18 hrs
[20] = system: Staphylococcus aureus; assay: Bactericidal activity against Staphylococcus aureus ATCC 29213 assessed as bacterial killing at 4 times MIC measured within 4 to 8 hrs by time kill assay relative to control; type: functional; details: time 4-8 hrs
[21] = Toxicity in Kunming mouse assessed as effect on heart at 4 to 8 mg/kg, sc measured after 24 hrs by H and E staining based analysis; type: organism-based; details: in vivo, dose 4-8 mg/kg
[22] = system: Cell membrane; assay: Induction of cell membrane permeability in methicillin-resistant Staphylococcus aureus clinical isolate MRSA-16 assessed as increase in damaged cells (Q2 region) at 4 ug/ml incubated for 2 hrs by SYTO 9 and PI staining based flow cytometry analysis (reference value: 0.91%); type: cell membranes; details: dose 4.0 µg/ml
[23] = system: Staphylococcus aureus; assay: Antibacterial activity against methicillin-resistant Staphylococcus aureus clinical isolate MRSA-18 measured after 16 to 18 hrs by CLSI method; type: functional; details: time 16-18 hrs

In the case of `CCCC[N+](C)(CCCC)CCCCCOc1ccc(C2CC(=O)c3c(OC)cc(OCCCCC[N+](C)(CCCC)CCCC)c(CC=C(C)C)c3O2)cc1.[I-].[I-]` (stereo not drawn), the Activity [1] is reported as “Non-Toxic”, the Activity [2] is reported as 28.4% and the Activity [3] is reported as “Non-Toxic”. For the same compound, the Activity [4] was “Active”, the Activity [5] was “Active” and the Activity [6] was “Active”. The Activity [7] was “Active”, the HC50 at 1 h [8] was greater than 1280 µg/mL and the Activity [9] was 57.4%. The MIC [10] was 0.5 µg/mL, the Activity [11] was 100% and the Activity [12] was 39.7%. The Activity [13] was “Non-Toxic”, the Activity [14] was “Active” and the Activity [15] was “Non-Toxic”. It also gave an MIC [16] of 0.5 µg/mL, an Activity [17] of 60.8% and an Activity [18] of 69.9%. The Activity [19] was “inactive”, the Activity [20] was 100% and the Activity [21] was “Non-Toxic”. The Activity [22] was 38.6% and the MIC [23] was 0.5 µg/mL.

Reference: ChEMBL document CHEMBL5505992, “Novel membrane-targeting isoxanthohumol-amine conjugates for combating methicillin-resistant Staphylococcus aureus (MRSA) infections” (Eur J Med Chem, 2024)
